Results as given in ChEMBL document CHEMBL1147511 (Bioorg Med Chem Lett, 2004).

Tests used:
Type in all cases: protein-complex assay
[1] = biological target: Neuronal acetylcholine receptor; alpha2/beta2 (Rattus norvegicus, UniProt P12389+P12390); assay: Binding affinity towards nicotinic acetylcholine receptor alpha2-beta2 using [3H]epibatidine
[2] = biological target: Neuronal acetylcholine receptor; alpha2/beta4 (Rattus norvegicus, UniProt P12389+P12392); assay: Binding affinity towards Nicotinic acetylcholine receptor alpha2-beta4 using [3H]epibatidine
Neuronal acetylcholine receptor; alpha2/beta4, sequence (P12389 whole entry): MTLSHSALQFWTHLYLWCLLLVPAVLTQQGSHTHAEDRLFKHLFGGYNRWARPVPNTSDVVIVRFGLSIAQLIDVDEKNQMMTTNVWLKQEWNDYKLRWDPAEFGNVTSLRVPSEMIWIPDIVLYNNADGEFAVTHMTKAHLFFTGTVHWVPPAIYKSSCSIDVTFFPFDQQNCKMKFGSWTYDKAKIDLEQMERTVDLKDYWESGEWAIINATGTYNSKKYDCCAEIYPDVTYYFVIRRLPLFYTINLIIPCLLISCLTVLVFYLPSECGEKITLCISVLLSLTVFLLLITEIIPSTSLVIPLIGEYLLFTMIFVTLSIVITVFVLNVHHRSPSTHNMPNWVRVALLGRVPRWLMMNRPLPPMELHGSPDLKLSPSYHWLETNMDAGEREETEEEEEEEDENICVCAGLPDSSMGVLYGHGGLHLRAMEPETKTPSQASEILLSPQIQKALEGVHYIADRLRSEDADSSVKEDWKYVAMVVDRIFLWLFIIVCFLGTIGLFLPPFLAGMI
Neuronal acetylcholine receptor; alpha2/beta4, sequence (P12392 whole entry): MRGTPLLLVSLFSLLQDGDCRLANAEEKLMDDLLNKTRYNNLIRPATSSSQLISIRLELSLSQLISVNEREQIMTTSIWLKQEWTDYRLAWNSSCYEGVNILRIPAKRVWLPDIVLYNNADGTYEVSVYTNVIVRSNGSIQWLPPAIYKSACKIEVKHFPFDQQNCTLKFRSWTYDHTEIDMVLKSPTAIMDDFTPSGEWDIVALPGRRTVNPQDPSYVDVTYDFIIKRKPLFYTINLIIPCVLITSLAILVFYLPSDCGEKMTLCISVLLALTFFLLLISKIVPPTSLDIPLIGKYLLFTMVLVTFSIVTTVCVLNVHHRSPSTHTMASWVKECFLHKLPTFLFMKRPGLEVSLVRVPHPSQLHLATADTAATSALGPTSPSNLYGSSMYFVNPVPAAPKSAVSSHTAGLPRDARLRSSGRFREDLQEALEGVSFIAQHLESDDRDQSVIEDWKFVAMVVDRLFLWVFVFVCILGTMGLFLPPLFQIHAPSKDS

[3] = biological target: Neuronal acetylcholine receptor; alpha4/beta4 (Rattus norvegicus, UniProt P09483+P12392); assay: Binding affinity towards Nicotinic acetylcholine receptor alpha4-beta4 using [3H]epibatidine
Neuronal acetylcholine receptor; alpha4/beta4, sequence (P09483 whole entry): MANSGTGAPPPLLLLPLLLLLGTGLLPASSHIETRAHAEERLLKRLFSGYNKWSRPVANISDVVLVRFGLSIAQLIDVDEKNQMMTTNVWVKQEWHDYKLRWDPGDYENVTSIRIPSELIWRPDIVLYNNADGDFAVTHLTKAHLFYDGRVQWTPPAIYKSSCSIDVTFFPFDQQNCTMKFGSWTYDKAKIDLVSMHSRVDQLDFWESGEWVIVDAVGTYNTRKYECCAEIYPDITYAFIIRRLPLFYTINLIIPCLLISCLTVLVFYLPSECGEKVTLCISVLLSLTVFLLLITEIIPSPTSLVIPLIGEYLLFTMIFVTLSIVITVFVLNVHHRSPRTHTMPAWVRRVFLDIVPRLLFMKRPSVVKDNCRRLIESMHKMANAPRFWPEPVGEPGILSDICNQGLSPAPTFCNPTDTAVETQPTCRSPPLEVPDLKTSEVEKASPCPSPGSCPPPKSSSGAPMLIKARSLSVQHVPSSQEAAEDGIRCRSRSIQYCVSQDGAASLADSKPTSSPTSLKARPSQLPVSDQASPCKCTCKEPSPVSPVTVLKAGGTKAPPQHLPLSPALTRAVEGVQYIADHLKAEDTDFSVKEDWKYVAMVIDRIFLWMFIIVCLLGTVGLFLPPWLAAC
Neuronal acetylcholine receptor; alpha4/beta4, sequence (P12392 whole entry): as the sequence (P12392 whole entry) above

[4] = biological target: Neuronal acetylcholine receptor; alpha3/beta2 (Rattus norvegicus, UniProt P04757+P12390); assay: Binding affinity towards Nicotinic acetylcholine receptor alpha3-beta2 using [3H]epibatidine
Neuronal acetylcholine receptor; alpha3/beta2, sequence (P04757 whole entry): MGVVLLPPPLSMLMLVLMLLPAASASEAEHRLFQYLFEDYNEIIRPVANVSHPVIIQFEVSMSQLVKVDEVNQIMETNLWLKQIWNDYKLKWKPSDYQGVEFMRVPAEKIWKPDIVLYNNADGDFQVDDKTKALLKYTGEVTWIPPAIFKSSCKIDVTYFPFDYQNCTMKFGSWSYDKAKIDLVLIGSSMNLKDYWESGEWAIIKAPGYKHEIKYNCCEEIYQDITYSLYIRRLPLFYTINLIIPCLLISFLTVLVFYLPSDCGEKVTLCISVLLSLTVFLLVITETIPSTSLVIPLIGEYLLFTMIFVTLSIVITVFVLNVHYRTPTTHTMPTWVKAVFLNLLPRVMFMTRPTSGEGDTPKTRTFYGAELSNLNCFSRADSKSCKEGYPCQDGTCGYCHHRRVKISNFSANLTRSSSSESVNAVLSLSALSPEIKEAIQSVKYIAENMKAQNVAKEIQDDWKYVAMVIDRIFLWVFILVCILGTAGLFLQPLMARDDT
Neuronal acetylcholine receptor; alpha3/beta2, sequence (P12390 whole entry): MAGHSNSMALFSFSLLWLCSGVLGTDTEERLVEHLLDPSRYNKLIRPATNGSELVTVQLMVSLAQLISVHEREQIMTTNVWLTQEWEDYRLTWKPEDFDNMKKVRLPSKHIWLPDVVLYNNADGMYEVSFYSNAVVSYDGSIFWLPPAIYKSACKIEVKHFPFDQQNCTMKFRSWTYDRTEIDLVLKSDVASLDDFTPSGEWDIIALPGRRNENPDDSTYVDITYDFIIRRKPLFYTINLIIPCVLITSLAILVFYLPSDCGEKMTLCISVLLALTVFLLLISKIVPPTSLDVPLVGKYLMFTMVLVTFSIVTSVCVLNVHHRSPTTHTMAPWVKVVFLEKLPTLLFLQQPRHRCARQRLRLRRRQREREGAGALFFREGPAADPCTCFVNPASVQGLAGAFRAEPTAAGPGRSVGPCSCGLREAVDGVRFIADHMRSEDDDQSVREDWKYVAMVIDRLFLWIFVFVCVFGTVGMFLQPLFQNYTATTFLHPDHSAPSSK

[5] = biological target: T1, Neuronal acetylcholine receptor; alpha3/beta4 (Rattus norvegicus, UniProt P04757+P12392); assay: Binding affinity towards Nicotinic acetylcholine receptor alpha3-beta4
T1 sequence (P04757 whole entry): as the sequence (P04757 whole entry) above
T1 sequence (P12392 whole entry): as the sequence (P12392 whole entry) above

[6] = biological target: Neuronal acetylcholine receptor; alpha4/beta2 (Rattus norvegicus, UniProt P09483+P12390); assay: Binding affinity towards Nicotinic acetylcholine receptor alpha4-beta2 using [3H]epibatidine
Neuronal acetylcholine receptor; alpha4/beta2, sequence (P09483 whole entry): as the sequence (P09483 whole entry) above
Neuronal acetylcholine receptor; alpha4/beta2, sequence (P12390 whole entry): as the sequence (P12390 whole entry) above

[7] = biological target: T1, Neuronal acetylcholine receptor; alpha3/beta4; assay: Binding affinity towards Nicotinic acetylcholine receptor alpha3-beta4 using [3H]epibatidine

Neuronal acetylcholine receptor; alpha2/beta2, sequence (P12389 whole entry): as the sequence (P12389 whole entry) above
Neuronal acetylcholine receptor; alpha2/beta2, sequence (P12390 whole entry): as the sequence (P12390 whole entry) above

Structure (SMILES)	Ki [1]	Ki [2]	Ki [3]	Ki [4]	Ki [5]	Ki [6]	Ki [7]
Clc1ccc(C2CC3CCC2N3CCN2C3CCC2C(c2ccc(Cl)nc2)C3)cn1 (centres undefined)	2.08 nM	26.8 nM	27.7 nM	5.44 nM	47.8 nM	9.33 nM	–
Clc1ccc(C2CC3CCC2N3CCCCCCN2C3CCC2C(c2ccc(Cl)nc2)C3)cn1 (centres undefined)	3.13 nM	47.8 nM	40.4 nM	6.19 nM	–	9.05 nM	82.2 nM
Clc1ccc(C2CC3CCC2N3CCCN2C3CCC2C(c2ccc(Cl)nc2)C3)cn1 (centres undefined)	5.53 nM	57.3 nM	54.2 nM	8.99 nM	–	15.7 nM	112 nM
Clc1ccc(C2CC3CCC2N3CCCCCCCCCCN2C3CCC2C(c2ccc(Cl)nc2)C3)cn1 (centres undefined)	7.51 nM	71.7 nM	61.3 nM	12.6 nM	–	21.6 nM	138 nM
